Source: ChEMBL document CHEMBL5055639, “ω-Functionalized Lipid Prodrugs of HIV NtRTI Tenofovir with Enhanced Pharmacokinetic Properties” (J Med Chem, 2021)

Tests used:
[1] = Metabolic stability in human liver microsomes assessed as half life at 3 uM measured up to 30 min in presence of NADPH by LC-MS/MS analysis; format: ADME, Microsome; details: 0.5 h
[2] = molecular target: Cytochrome P450 3A4 (Homo sapiens, UniProt P08684); test: Inhibition of human recombinant CYP3A4 expressed in insect microsome using 7-benzyloxy-4-trifluoromethylcoumarin as a substrate incubated for 30 mins followed by addition of NADPH regenerating system measured immediately by fluorescence based analysis; format: ADME, microsomes
[3] = molecular target: Cytochrome P450 2D6 (Homo sapiens, UniProt P10635); test: Inhibition of human recombinant CYP2D6 expressed in insect microsome using (3-[2-([…]-N-methylammonium)-ethyl]-7-methoxy-4-methylcoumarin iodide as a substrate incubated for 30 mins followed by addition of NADPH regenerating system measured immediately by fluorescence based analysis; format: ADME, microsomes
[4] = Therapeutic index, ratio of CC50 for cytotoxicity against HEK293T cells to IC50 for antiviral activity against human immunodeficiency virus expressed in HEK293T cells; format: toxicity, cell-based; details: read-out: Ratio CC50/IC50
[5] = tested on: HEK-293T; test: Cytotoxicity against HEK293T cells assessed as reduction in cell viability measured after 48 hrs by CellTiter 96 Aqueous One Solution reagent based cell proliferation assay; details: human
[6] = AUC(0 to 24 hrs) in C57BL/6 mouse liver at 10 mg/kg, po measured up to 24 hrs by LC-MS/MS analysis; format: ADME, organism-based; design: time < 24 hrs, dose 10 mg/kg, route po; details: in vivo
[7] = Cmax in C57BL/6 mouse plasma at 10 mg/kg, po measured up to 24 hrs by LC-MS/MS analysis; format: ADME, organism-based; design: dose 10 mg/kg, time < 24 hrs, route po; details: in vivo
[8] = Tmax in C57BL/6 mouse plasma at 10 mg/kg, po measured up to 24 hrs by LC-MS/MS analysis; format: ADME, organism-based; details: in vivo
[9] = Prodrug conversion in C57BL/6 mouse plasma assessed as AUC(0 to 24 hrs) of TFV metabolite at 10 mg/kg, po measured up to 24 hrs by LC-MS/MS analysis; format: ADME, organism-based; design: time < 24 hrs, dose 10 mg/kg, route po; details: in vivo
[10] = Ratio of prodrug AUC(0 to 24 hrs) to TFV AUC(0 to 24 hrs) in C57BL/6 mouse plasma at 10 mg/kg, po measured up to 24 hrs by LC-MS/MS analysis; format: ADME, organism-based; details: in vivo
[11] = Prodrug conversion in C57BL/6 mouse plasma assessed as Cmax of TFV metabolite at 10 mg/kg, po measured up to 24 hrs by LC-MS/MS analysis; format: ADME, organism-based; design: time < 24 hrs, dose 10 mg/kg, route po; details: in vivo
[12] = AUC(0 to 24 hrs) in C57BL/6 mouse plasma at 10 mg/kg, po measured up to 24 hrs by LC-MS/MS analysis; format: ADME, organism-based; design: time < 24 hrs, dose 10 mg/kg, route po; details: in vivo
[13] = Ratio of prodrug AUC(0 to 24 hrs) to TFV AUC(0 to 24 hrs) in C57BL/6 mouse liver at 10 mg/kg, po measured up to 24 hrs by LC-MS/MS analysis; format: ADME, organism-based; details: in vivo
[14] = Tmax in C57BL/6 mouse liver at 10 mg/kg, po measured up to 24 hrs by LC-MS/MS analysis; format: ADME, organism-based
[15] = Half life in C57BL/6 mouse plasma at 10 mg/kg, po measured up to 24 hrs by LC-MS/MS analysis; format: ADME, organism-based; details: in vivo
[16] = Plasma protein binding in C57BL/6 mouse at 10 mg/kg, po measured up to 24 hrs by LC-MS/MS; format: ADME, organism-based; details: read-out: PPB
[17] = Prodrug conversion in C57BL/6 mouse liver assessed as Cmax of TFV metabolite at 10 mg/kg, po measured up to 24 hrs by LC-MS/MS analysis; format: ADME, organism-based; design: dose 10 mg/kg, time < 24 hrs, route po; details: in vivo
[18] = Cmax in C57BL/6 mouse liver at 10 mg/kg, po measured up to 24 hrs by LC-MS/MS analysis; format: ADME, organism-based; design: time < 24 hrs, dose 10 mg/kg, route po; details: in vivo
[19] = Prodrug conversion in C57BL/6 mouse plasma assessed as Tmax of TFV metabolite at 10 mg/kg, po measured up to 24 hrs by LC-MS/MS analysis; format: ADME, organism-based; details: in vivo
[20] = Prodrug conversion in C57BL/6 mouse liver assessed as AUC(0 to 24 hrs) of TFV metabolite at 10 mg/kg, po measured up to 24 hrs by LC-MS/MS analysis; format: ADME, organism-based; design: time < 24 hrs, dose 10 mg/kg, route po; details: in vivo
[21] = tested on: Human immunodeficiency virus; test: Antiviral activity against human immunodeficiency virus expressed in HEK293T cells coexpressing firefly luciferase gene incubated for 48 hrs by Bright-Glo luciferase assay; format: functional, organism-based; details: Human immunodeficiency virus 1, HEK-293T
[22] = Prodrug conversion in C57BL/6 mouse liver assessed as Tmax of TFV metabolite at 10 mg/kg, po measured up to 24 hrs by LC-MS/MS analysis; format: ADME, organism-based; details: in vivo
[23] = tested on: HEK-293T; test: Cytotoxicity against HEK293T cells assessed as reduction in cell viability in absence of HSA measured after 48 hrs by CellTiter 96 Aqueous One Solution reagent based cell proliferation assay; details: human
[24] = Therapeutic index, ratio of CC50 for cytotoxicity against HEK293T cells in absence of HSA to IC50 for antiviral activity against human immunodeficiency virus expressed in HEK293T cells in absence of HSA; format: toxicity, cell-based; details: read-out: Ratio CC50/IC50
[25] = tested on: Human immunodeficiency virus; test: Antiviral activity against human immunodeficiency virus expressed in HEK293T cells coexpressing firefly luciferase gene incubated for 48 hrs in absence of HSA by Bright-Glo luciferase assay; format: functional, organism-based; details: Human immunodeficiency virus 1, HEK-293T
[26] = C57BL/6, mouse, liver, read-out: Tmax

Chain of Cytochrome P450 2D6 (P10635 whole entry): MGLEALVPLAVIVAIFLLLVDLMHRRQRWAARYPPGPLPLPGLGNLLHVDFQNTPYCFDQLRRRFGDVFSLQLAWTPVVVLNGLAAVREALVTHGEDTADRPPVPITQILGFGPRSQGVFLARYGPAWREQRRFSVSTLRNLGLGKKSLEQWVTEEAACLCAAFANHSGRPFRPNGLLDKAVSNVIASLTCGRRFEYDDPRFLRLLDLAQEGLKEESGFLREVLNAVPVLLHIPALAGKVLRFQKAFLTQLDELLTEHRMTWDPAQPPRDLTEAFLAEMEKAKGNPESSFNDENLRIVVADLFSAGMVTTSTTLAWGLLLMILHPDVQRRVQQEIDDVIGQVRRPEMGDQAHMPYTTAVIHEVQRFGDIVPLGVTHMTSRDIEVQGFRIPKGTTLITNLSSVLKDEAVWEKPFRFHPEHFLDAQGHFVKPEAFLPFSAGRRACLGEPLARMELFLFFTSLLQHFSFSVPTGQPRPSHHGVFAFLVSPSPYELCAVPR
Chain of Cytochrome P450 3A4 (P08684 whole entry): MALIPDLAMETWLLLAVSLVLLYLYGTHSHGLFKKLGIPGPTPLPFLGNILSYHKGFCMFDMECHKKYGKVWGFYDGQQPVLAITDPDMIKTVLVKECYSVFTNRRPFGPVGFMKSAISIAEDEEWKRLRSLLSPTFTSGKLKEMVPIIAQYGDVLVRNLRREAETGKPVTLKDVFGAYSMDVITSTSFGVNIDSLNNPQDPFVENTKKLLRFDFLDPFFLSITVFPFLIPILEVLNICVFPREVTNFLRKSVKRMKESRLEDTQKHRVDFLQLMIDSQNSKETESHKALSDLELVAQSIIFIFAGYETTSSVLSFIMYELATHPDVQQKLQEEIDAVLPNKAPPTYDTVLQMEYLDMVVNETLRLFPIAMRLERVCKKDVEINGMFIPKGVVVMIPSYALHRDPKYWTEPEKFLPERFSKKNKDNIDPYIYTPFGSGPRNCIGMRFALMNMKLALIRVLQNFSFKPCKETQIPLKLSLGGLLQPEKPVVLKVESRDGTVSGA

C[C@H](Cn1cnc2c(N)ncnc21)OCP(=O)(O)OCCCCCCCCCCCCCCCCCC#CC(F)(F)F.N
t1/2 [1]: > 2 h
IC50 [2]: > 20 µM
IC50 [3]: > 20 µM
selectivity ratio [4]: 423
CC50 [5]: 78.7 µM

C[C@H](Cn1cnc2c(N)ncnc21)OCP(=O)(O)OCCCOCCCCCCCCCCCCCC#CC(F)(F)F.N
AUC [6]: 1310 ng·h/mL
t1/2 [1]: > 2 h
Cmax [7]: 153 ng/mL
Tmax [8]: 2 h
AUC [9]: 425 ng·h/mL
Ratio AUC [10]: 1.51
IC50 [3]: > 20 µM
Cmax [11]: 42.8 ng/mL
AUC [12]: 643 ng·h/mL
selectivity ratio [4]: > 4350
Ratio AUC [13]: 0.06
CC50 [5]: > 100 µM
Tmax [14, 26]: 1 h
t1/2 [15]: 2.69 h
fraction unbound at 24 h [16]: < 0.001
Cmax [17]: 1380 ng/mL
Cmax [18]: 558 ng/mL
Tmax [19]: 1 h
AUC [20]: 21900 ng·h/mL
IC50 [21]: 0.023 µM
Tmax [22]: 4 h

C[C@H](Cn1cnc2c(N)ncnc21)OCP(=O)(O)OCCCCCCCCCCCCCCCCC#C[Si](C)(C)C.N
t1/2 [1]: > 2 h
selectivity ratio [4]: 792
CC50 [5]: 68.1 µM
IC50 [21]: 0.086 µM

C#CCCCCCCCCCCCCCCOCCCOP(=O)(O)CO[C@H](C)Cn1cnc2c(N)ncnc21.N
t1/2 [1]: > 2 h
IC50 [2]: > 20 µM
IC50 [3]: > 20 µM
selectivity ratio [4]: > 758
CC50 [5]: > 100 µM
IC50 [21]: 0.132 µM

CCCCCCCCCCCCCCCCSCCCOP(=O)(O)CO[C@H](C)Cn1cnc2c(N)ncnc21.N
t1/2 [1]: 0.7 h
selectivity ratio [4]: 4980
CC50 [5]: 49.8 µM
IC50 [21]: 0.01 µM

C#CCCCCCCCCCCCCCCCCCCOP(=O)(O)CO[C@H](C)Cn1cnc2c(N)ncnc21.N
t1/2 [1]: > 2 h
IC50 [2]: > 50 µM
selectivity ratio [4]: 84
CC50 [5]: 99.5 µM
IC50 [21]: 1.18 µM

C[C@H](Cn1cnc2c(N)ncnc21)OCP(=O)(O)OCCCOCCCCCCCCCCCCC#C[Si](C)(C)C.N
AUC [6]: 101000 ng·h/mL
t1/2 [1]: > 2 h
Cmax [7]: 120 ng/mL
Tmax [8]: 2 h
AUC [9]: 142 ng·h/mL
IC50 [2]: > 20 µM
IC50 [3]: 21.7 µM
Cmax [11]: 14.1 ng/mL
AUC [12]: 550 ng·h/mL
Tmax [14, 26]: 4 h
t1/2 [15]: 2.49 h
fraction unbound at 24 h [16]: < 0.001
Cmax [17]: 671 ng/mL
Cmax [18]: 8130 ng/mL
Tmax [19]: 12 h
AUC [20]: 11200 ng·h/mL
IC50 [21]: 0.069 µM
Tmax [22]: 4 h

CCCCCCCCCCCCCCCOP(=O)(O)CO[C@H](C)Cn1cnc2c(N)ncnc21.N
t1/2 [1]: 0.217 h
selectivity ratio [4]: > 49
CC50 [5]: > 100 µM
IC50 [21]: 2.06 µM

C[C@H](Cn1cnc2c(N)ncnc21)OCP(=O)(O)OCCCCCCCCCCCCCCCCCCCC(F)(F)F.N
t1/2 [1]: > 2 h
IC50 [2]: > 20 µM
IC50 [3]: > 20 µM
selectivity ratio [4]: 603
CC50 [5]: 72.4 µM
IC50 [21]: 0.12 µM

C[C@H](Cn1cnc2c(N)ncnc21)OCP(=O)(O)OCCCOCCCCCCCCCCCCCCCC(F)(F)F.N
t1/2 [1]: > 2 h
Tmax [8]: 2 h
AUC [9]: 337 ng·h/mL
IC50 [2]: > 20 µM
Ratio AUC [10]: 3.8
IC50 [3]: > 20 µM
Cmax [11]: 22.1 ng/mL
selectivity ratio [4]: > 2040
Ratio AUC [13]: 4.81
CC50 [5]: > 100 µM
Tmax ([14]; mouse, in vivo, po, 10 mg/kg, 24 h): 2 h
fraction unbound at 24 h [16]: < 0.001
Cmax [17]: 1120 ng/mL
Tmax [19]: 8 h
AUC [20]: 22600 ng·h/mL
IC50 [21]: 0.049 µM
Tmax [22]: 24 h

CCCCCCCCCCCCCCCCCCOP(=O)(O)CO[C@H](C)Cn1cnc2c(N)ncnc21.N
t1/2 [1]: 0.217 h
selectivity ratio [4]: 895
CC50 [5]: 84.1 µM
IC50 [21]: 0.094 µM

C#CCCCCCCCCCCCCCCCCOP(=O)(O)CO[C@H](C)Cn1cnc2c(N)ncnc21.N
t1/2 [1]: > 2 h
selectivity ratio [4]: > 49
CC50 [5]: > 100 µM
IC50 [21]: 2.03 µM

C[C@H](Cn1cnc2c(N)ncnc21)OCP(=O)(O)O [TENOFOVIR ANHYDROUS]
CC50 [23]: > 100 µM
IC50 [2]: 45.8 µM
IC50 [3]: > 50 µM
selectivity ratio [24]: > 49
IC50 [25]: 2.06 µM
selectivity ratio [4]: 22
CC50 [5]: 35.4 µM
IC50 [21]: 1.6 µM
